Results as given in ChEMBL document CHEMBL1201862, “PubChem BioAssay data set” (2004).
Activity calls are given as the source filed them.

Key:
[1] = NIH3T3 cell viability loss – ATP luminescence, mouse fibroblasts, counter-screen, dose response (AID 2010); format: functional, cell-based;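 note: cells exposed to compound for about 90 hours before reading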
BJ [2] = assay: cells; format: functional, cell-based; settings: Homo sapiens
BJ [3] = assay: BJ-TERT-LT-ST fibroblast viability loss – cell-based, RAS-independent, luminescence, dose response (AID 1935); format: functional; settings: Homo sapiens;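 note: BJ fibroblasts immortalized with TERT plus LT and ST oncogenes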
Streptokinase A = biological target: T1, Streptokinase A (Streptococcus pyogenes serotype M1, UniProt P10520); assay: viability-normalized secreted streptokinase activity reduction – plasminogen activation absorbance, OD405, dose response (AID 1914); format: functional, Streptococcus pyogenes M1 GAS;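 note: secreted streptokinase activity via plasminogen activation per viability signal from cell pellet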
T1 sequence (P10520 whole entry): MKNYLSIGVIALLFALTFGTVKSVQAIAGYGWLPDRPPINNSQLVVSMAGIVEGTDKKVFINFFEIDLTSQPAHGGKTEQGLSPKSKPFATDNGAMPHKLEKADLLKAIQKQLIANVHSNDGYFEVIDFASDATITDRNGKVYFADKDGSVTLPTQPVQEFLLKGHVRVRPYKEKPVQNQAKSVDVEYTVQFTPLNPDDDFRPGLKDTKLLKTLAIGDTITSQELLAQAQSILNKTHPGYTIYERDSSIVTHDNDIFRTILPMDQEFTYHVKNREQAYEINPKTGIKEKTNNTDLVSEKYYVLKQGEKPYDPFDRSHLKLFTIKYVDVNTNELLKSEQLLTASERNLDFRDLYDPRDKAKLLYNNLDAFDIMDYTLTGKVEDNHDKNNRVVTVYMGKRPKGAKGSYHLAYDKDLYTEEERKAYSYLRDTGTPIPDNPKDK

Streptococcus = assay: GAS UMAA2166 growth inhibition – luminescence, BacTiterGlo, counter-screen for streptokinase expression inhibitor project, dose response (AID 1915); format: functional, organism-based;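 note: potency for reduction of bacterial viability or growth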
[4] = DRD fibroblast viability loss – cell-based, non-viral oncogenic, luminescence, dose response (AID 1934); format: functional; settings: Homo sapiens
[5] = test system: Streptococcus sp. 'group A'; assay: Streptococcus pyogenes SK(-)GAS viability under kanamycin – luminescence, BacTiterGlo, confirmation, counter-screen for streptokinase expression inhibitor project, dose response (AID 1900); format: functional, organism-based
[6] = Trypanosoma cruzi growth suppression in host cells – NIH3T3 host cells, beta-gal luminescence, confirmation (AID 2044); format: functional, cell-based;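 note: intracellular parasites grown in NIH/3T3 mouse fibroblasts as host cells; luminescent beta-galactosidase reporter signal from transgenic T. cruzi replicating inside host cells; inhibitors lower the luminescence signal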
BJ [7] = assay: BJ-TERT fibroblast viability loss – cell-based, RAS-independent, luminescence, dose response (AID 1933); format: functional; settings: Homo sapiens
[8] = biological target: T2, Polyadenylate-binding protein 1 (Homo sapiens, UniProt P11940); assay: MLLE domain peptide-binding blockers, IC50 – biochemical, fluorescence polarization, FITC-PAM2 peptide, dose response (AID 602259); format: functional; settings: read-out: IC50_Mean
T2 sequence (P11940 whole entry, the tested form may be a part): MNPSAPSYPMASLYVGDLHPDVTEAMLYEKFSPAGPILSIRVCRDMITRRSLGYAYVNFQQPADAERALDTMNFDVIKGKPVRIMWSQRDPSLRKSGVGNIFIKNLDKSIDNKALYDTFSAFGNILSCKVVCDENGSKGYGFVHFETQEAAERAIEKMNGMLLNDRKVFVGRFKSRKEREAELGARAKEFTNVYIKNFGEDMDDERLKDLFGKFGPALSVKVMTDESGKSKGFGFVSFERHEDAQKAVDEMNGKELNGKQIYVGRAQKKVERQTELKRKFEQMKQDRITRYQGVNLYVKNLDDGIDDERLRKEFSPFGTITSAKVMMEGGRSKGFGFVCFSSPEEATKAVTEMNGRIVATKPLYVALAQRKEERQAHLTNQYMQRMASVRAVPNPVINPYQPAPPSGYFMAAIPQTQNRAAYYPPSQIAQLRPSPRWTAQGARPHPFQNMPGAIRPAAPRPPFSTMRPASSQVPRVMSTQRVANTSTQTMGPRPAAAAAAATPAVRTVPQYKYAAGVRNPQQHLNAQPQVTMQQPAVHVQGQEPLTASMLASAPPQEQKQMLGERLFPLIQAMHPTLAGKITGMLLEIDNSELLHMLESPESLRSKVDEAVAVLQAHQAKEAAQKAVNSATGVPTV

[9] = biological target: T2, Polyadenylate-binding protein 1; assay: MLLE binding blockers, Cy5 peptide tracer – biochemical, fluorescence polarization, Cy5-PAM2 peptide, secondary, miRNA deadenylation inhibitor project, dose response (AID 602260); format: functional; settings: read-out: IC50_Mean
[10] = biological target: T3, RNA-binding protein pos-1 (Caenorhabditis elegans, UniProt G5EF15); assay: disruptors of C. elegans POS-1 RNA interaction – biochemical, fluorescence polarization, dose response (AID 1964);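 note: purified POS-1 fused to maltose binding protein made in E. coli; potency of compounds blocking POS-1 binding to fluorescent RNA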
T3 sequence (G5EF15 whole entry): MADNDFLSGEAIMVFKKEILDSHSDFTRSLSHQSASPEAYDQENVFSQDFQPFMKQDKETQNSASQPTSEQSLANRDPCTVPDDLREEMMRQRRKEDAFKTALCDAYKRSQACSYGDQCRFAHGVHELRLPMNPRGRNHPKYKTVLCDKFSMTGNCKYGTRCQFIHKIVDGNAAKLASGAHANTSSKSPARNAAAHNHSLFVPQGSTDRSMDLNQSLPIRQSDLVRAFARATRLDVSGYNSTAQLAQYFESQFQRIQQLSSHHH

[11] = biological target: T4, Zinc finger protein mex-5 (Caenorhabditis elegans, UniProt Q9XUB2); assay: potency of MEX-5 RNA-binding blockers – biochemical, C. elegans, fluorescence polarization, dose response (AID 1960)
T4 sequence (Q9XUB2 whole entry): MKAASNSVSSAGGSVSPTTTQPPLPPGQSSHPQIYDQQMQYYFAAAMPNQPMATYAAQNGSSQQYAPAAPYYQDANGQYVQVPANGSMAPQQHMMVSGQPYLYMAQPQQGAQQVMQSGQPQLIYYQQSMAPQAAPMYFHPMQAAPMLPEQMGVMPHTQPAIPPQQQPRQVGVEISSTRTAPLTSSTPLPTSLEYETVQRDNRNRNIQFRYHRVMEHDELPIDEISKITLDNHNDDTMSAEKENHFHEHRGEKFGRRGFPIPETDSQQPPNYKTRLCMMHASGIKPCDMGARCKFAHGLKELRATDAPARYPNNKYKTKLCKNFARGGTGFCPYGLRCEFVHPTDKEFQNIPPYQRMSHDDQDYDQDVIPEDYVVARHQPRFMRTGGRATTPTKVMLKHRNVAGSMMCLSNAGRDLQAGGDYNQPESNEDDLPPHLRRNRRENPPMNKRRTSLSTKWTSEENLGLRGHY

[12] = biological target: FAD-linked sulfhydryl oxidase ALR (Homo sapiens, UniProt P55789); assay: ALR-catalysed DTT oxidation blockers – biochemical, H2O2 detection, luminescence, cherry-pick, dose response (AID 493248)
Chain of FAD-linked sulfhydryl oxidase ALR (P55789 whole entry): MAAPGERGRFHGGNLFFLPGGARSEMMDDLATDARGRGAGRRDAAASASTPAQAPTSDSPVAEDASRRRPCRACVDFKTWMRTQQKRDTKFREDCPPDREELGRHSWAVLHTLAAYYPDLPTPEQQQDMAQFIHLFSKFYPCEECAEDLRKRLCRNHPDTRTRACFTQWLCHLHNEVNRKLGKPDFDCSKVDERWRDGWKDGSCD

Cytochrome P450 2C9 = Cytochrome P450 2C9 (Homo sapiens, UniProt P11712)
Chain of Cytochrome P450 2C9 (P11712 whole entry): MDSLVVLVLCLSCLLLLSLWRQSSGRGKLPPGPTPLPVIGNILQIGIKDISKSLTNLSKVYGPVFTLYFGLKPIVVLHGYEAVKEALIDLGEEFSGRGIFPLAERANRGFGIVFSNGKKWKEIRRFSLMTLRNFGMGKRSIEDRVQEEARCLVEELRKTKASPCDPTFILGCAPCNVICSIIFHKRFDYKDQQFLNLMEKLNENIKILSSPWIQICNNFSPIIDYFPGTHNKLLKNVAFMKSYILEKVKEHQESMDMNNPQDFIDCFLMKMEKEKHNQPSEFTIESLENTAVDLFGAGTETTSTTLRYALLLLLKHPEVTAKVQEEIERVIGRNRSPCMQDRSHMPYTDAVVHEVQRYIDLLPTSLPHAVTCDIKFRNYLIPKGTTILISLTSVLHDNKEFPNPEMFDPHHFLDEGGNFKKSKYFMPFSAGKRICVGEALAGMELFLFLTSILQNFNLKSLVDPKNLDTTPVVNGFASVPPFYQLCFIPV

Cytochrome P450 3A4 = Cytochrome P450 3A4 (Homo sapiens, UniProt P08684);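 note: CYP3A4 tested as one member of a cytochrome P450 panel screen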
Chain of Cytochrome P450 3A4 (P08684 whole entry): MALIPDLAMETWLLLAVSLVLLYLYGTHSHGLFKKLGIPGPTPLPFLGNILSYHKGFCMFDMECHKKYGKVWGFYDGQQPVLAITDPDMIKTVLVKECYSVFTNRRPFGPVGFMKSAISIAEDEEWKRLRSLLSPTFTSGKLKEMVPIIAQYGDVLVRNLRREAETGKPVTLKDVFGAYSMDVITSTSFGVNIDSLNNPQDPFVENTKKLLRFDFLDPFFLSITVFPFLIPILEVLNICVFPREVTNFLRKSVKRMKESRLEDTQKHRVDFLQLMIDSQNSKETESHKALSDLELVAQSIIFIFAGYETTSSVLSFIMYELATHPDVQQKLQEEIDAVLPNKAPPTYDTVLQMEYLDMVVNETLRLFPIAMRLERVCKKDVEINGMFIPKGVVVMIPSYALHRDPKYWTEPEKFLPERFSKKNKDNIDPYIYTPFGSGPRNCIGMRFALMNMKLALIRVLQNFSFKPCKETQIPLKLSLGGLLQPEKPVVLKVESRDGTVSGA

[13] = intracellular Trypanosoma cruzi inhibitors in host cells – cell-based, plate reader, cherry-pick samples, set 3, dose response (AID 651818); format: functional;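 note: compounds incubated with infected cells for about four days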
[14] = viability of uninfected HEp-2 cells – cell-based, HTS, cytotoxicity control for RSV inhibitor project, dose response (AID 2410); format: functional; settings: human respiratory syncytial virus
Genome polyprotein = Genome polyprotein (dengue virus type 2, UniProt P29990); assay: flavivirus cap methylation enzyme inhibition – biochemical, confirmation dose response, primary screen (AID 588689); format: functional
Chain of Genome polyprotein (P29990 2492-3391 limits assumed): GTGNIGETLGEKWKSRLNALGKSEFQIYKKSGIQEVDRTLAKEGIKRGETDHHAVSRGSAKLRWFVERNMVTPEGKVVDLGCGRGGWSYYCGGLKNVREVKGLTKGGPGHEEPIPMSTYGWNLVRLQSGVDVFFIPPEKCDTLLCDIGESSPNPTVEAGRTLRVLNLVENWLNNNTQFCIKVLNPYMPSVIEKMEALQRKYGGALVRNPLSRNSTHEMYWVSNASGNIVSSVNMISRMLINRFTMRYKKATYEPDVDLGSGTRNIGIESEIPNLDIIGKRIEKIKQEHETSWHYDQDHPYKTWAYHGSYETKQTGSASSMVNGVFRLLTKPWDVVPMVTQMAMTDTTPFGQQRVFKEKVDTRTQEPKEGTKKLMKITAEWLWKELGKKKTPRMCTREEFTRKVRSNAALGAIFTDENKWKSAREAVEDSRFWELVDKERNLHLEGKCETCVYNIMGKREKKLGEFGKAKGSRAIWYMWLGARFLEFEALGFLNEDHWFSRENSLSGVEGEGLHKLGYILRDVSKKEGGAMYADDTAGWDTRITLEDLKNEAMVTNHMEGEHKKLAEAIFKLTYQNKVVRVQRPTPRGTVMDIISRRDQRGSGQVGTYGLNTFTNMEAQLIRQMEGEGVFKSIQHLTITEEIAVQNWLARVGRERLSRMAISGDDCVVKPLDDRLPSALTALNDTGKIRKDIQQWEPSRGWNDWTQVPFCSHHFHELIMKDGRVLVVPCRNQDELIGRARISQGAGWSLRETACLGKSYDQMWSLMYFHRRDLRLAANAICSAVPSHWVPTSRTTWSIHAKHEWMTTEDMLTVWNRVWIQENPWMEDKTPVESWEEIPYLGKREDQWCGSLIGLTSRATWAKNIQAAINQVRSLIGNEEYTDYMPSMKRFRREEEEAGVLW

[15] = biological target: T5, Histone-lysine N-methyltransferase NSD2 (Homo sapiens, UniProt O96028); format: biochemical
T5 sequence (O96028 whole entry): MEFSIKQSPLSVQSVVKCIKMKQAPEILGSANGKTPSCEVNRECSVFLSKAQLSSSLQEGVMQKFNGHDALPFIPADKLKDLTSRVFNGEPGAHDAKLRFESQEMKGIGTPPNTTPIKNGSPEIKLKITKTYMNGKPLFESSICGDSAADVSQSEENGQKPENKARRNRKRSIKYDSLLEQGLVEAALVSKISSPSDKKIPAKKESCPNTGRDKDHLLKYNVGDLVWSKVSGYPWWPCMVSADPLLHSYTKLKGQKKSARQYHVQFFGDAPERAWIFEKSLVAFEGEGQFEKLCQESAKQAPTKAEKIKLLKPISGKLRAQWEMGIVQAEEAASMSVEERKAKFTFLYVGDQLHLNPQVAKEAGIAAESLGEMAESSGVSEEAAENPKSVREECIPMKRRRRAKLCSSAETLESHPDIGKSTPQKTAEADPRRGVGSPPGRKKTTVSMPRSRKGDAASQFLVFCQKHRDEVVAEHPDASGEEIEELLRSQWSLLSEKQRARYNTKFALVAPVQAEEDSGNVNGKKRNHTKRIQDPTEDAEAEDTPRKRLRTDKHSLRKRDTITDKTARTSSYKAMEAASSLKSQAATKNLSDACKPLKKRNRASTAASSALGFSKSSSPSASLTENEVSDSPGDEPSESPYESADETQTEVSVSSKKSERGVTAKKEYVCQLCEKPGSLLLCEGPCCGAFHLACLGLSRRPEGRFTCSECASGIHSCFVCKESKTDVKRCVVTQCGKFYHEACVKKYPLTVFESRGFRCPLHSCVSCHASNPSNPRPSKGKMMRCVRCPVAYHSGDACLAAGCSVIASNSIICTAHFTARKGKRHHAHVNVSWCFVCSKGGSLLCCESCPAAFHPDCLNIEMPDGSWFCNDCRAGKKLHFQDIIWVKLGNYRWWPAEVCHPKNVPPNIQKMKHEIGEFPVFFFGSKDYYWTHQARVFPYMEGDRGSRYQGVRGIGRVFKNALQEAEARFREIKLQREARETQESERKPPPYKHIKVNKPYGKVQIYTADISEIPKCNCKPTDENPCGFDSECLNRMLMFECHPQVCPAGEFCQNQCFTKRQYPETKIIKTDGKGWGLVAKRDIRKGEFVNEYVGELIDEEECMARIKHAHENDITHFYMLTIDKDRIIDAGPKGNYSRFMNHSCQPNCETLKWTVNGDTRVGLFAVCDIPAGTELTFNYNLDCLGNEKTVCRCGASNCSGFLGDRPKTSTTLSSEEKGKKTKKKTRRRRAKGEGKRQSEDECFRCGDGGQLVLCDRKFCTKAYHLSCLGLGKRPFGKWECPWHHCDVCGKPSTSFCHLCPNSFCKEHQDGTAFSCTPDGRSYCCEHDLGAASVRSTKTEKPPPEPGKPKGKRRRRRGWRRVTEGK

COC(=O)c1c(NC(=O)COc2ccc(Cl)cc2)sc2c1CC(C)(C)NC2(C)C
EC50 [1]: 10.4 µM (active) | EC50 (BJ [2]): 11.7 µM (active) | EC50 (BJ [3]): 5.75 µM (inconclusive) | EC50 (Streptokinase A): 23.7 µM (active) | EC50 (Streptococcus): > 150 µM (not active) | EC50 [4]: 5.85 µM (active) | EC50 [5]: 11.6 µM (active) | EC50 [6]: 1.54 µM (active) | EC50 (BJ [7]): 4.44 µM (active)

O=C(NN=Cc1sc(=O)[n-]c1-[n+]1ccc(-c2ccncc2)cc1)c1ccccc1O
IC50 [8]: 42.7 µM (inactive) | IC50 [9]: 33.3 µM (inactive) | EC50 [10]: 11.9 µM (active) | EC50 [11]: 10.7 µM (active)

CSCC[C@H](NC(=O)N1CCn2c1nc1ccccc12)C(=O)N1CCCCC1
AC50 [12]: 4.31 µM (active)

CC1CN(C2CCCCC2)c2nc3c(c(=O)[nH]c(=O)n3C)n2C1 (centres undefined)
AC50 [12]: 1.81 µM (active)

O=C(NC(=S)Nc1ccc(C(=O)N2CCOCC2)cc1)c1ccc([N+](=O)[O-])cc1
AC50 (Cytochrome P450 2C9): 0.891 µM (inconclusive) | IC50 [8]: > 66 µM (inactive) | IC50 [9]: > 66 µM (inactive) | AC50 (Cytochrome P450 3A4): 1.41 µM (inconclusive)

CCOC(=O)CNC(=O)CSc1nc(-c2cccc(C)c2)ns1
IC50 [8]: > 66 µM (inactive) | IC50 [9]: > 66 µM (inactive)

C[C@H](CO)N1C[C@H](C)[C@H](CN(C)Cc2ccc(C(F)(F)F)cc2)Oc2c(NC(=O)Nc3ccc(C(F)(F)F)cc3)cccc2C1=O
AC50 [13]: 4.77 µM (active)

C[C@H]1CN([C@@H](C)CO)C(=O)c2cc(NC(=O)Cc3cn(C)c4ccccc34)ccc2O[C@H]1CN(C)S(=O)(=O)c1ccc(Cl)cc1
AC50 [13]: 2.81 µM (active)

COc1ccc(S(=O)(=O)Nc2cccc3c2O[C@@H](CN(C)Cc2ccc(C(=O)Nc4ccccc4N)cc2)[C@@H](C)CN([C@H](C)CO)C3=O)cc1
AC50 [13]: 4.14 µM (active)

Cn1cccc1/C=N/n1c(S)nnc1-c1ccc(Cl)cc1Cl
AC50 [12]: 1.07 µM (active)

O=C1Nn2c(nc3c(c2=O)CCCC3)/C1=N/Nc1cccc(C(F)(F)F)c1
CC50 [14]: 25.1 µM (active) | IC50 (Genome polyprotein): 28.7 µM (active) | AC50 [15]: > 20 µM (inactive)

O=C(c1ccc(NC(=O)C(c2ccccc2)c2ccccc2)cc1)c1ccc(C(=O)O)c(C(=O)O)c1
IC50 (Genome polyprotein): 57.6 µM (active)
